Assay results reported in ChEMBL document CHEMBL3885861, “Open TG-GATES”.

Species: Rattus norvegicus
Experiment: Open TG-GATES - Regimen: Single
Assay type: toxicity, organism-based, Sprague-Dawley
Set-up: regimen Single, gender Male, age 6 weeks
Settings: in vivo, po, 50 mg/kg, route gavage, dose level Middle; for APTT / Bas / Eos / Fbg / Hb / Ht / Lym / MCH / MCHC / MCV / Mono / Neu / PT / Plat / RBC / Ret / WBC: tissue Blood; for KIDNEY_L / KIDNEY_R / KIDNEY_TOTAL: tissue Kidney; for LIVER: tissue Liver; for A/G / ALP / ALT / AST / BUN / CRE / Ca / Cl / DBIL / GLC / IP / K / LDH / Na / PL / RALB / TBIL / TC / TG / TP / gamma-GTP: tissue Plasma

CC(C)C(=O)Nc1ccc([N+](=O)[O-])c(C(F)(F)F)c1 [FLUTAMIDE]
TERMINAL_BW (3 h): 209.6 g | APTT (3 h): 18.6 s | Bas (3 h): 0% | Eos (3 h): 1% | Fbg (3 h): 216.6 mg/dL | Hb (3 h): 13.4 g/dL | Ht (3 h): 39.1% | Lym (3 h): 73.6% | MCH (3 h): 21.5 pg | MCHC (3 h): 34.2% | MCV (3 h): 63 fL | Mono (3 h): 2.8% | Neu (3 h): 21.4% | PT (3 h): 12.7 s | Plat (3 h): 136.9 x10_4/uL | RBC (3 h): 621 x10_4/ul | Ret (3 h): 7.8% | WBC (3 h): 82.5 x10_2/uL | KIDNEY_L (3 h): 0.9 g | KIDNEY_R (3 h): 0.9 g | KIDNEY_TOTAL (3 h): 1.8 g | LIVER (3 h): 9.6 g | A/G (3 h): 1.7 | ALP (3 h): 785.4 IU/L | ALT (3 h): 35.8 IU/L | AST (3 h): 64 IU/L | BUN (3 h): 12 mg/dL | CRE (3 h): 0.4 mg/dL | Ca (3 h): 10.7 mg/dL | Cl (3 h): 103.4 meq/L | DBIL (3 h): 0.1 mg/dL | GLC (3 h): 199.4 mg/dL | IP (3 h): 9.9 mg/dL | K (3 h): 4.1 meq/L | LDH (3 h): 168.4 IU/L | Na (3 h): 140 meq/L | PL (3 h): 158.6 mg/dL | RALB (3 h): 3.5 g/dL | TBIL (3 h): 0.2 mg/dL | TC (3 h): 80.2 mg/dL | TG (3 h): 86.8 mg/dL | TP (3 h): 5.6 g/dL | gamma-GTP (3 h): 1.2 IU/L | TERMINAL_BW (6 h): 209.1 g | APTT (6 h): 18.9 s | Bas (6 h): 0% | Eos (6 h): 0.8% | Fbg (6 h): 220.4 mg/dL | Hb (6 h): 13.2 g/dL | Ht (6 h): 38.3% | Lym (6 h): 75% | MCH (6 h): 21.8 pg | MCHC (6 h): 34.6% | MCV (6 h): 63 fL | Mono (6 h): 3.4% | Neu (6 h): 20.4% | PT (6 h): 13 s | Plat (6 h): 126.7 x10_4/uL | RBC (6 h): 608.4 x10_4/ul | Ret (6 h): 7.8% | WBC (6 h): 89.5 x10_2/uL | KIDNEY_L (6 h): 1 g | KIDNEY_R (6 h): 0.9 g | KIDNEY_TOTAL (6 h): 1.9 g | LIVER (6 h): 8.9 g | A/G (6 h): 1.6 | ALP (6 h): 921.6 IU/L | ALT (6 h): 33.4 IU/L | AST (6 h): 68.2 IU/L | BUN (6 h): 7.6 mg/dL | CRE (6 h): 0.4 mg/dL | Ca (6 h): 10.6 mg/dL | Cl (6 h): 101.6 meq/L | DBIL (6 h): 0.082 mg/dL | GLC (6 h): 196 mg/dL | IP (6 h): 9.9 mg/dL | K (6 h): 3.9 meq/L | LDH (6 h): 129.2 IU/L | Na (6 h): 140 meq/L | PL (6 h): 140.8 mg/dL | RALB (6 h): 3.4 g/dL | TBIL (6 h): 0.1 mg/dL | TC (6 h): 79.6 mg/dL | TG (6 h): 40.2 mg/dL | TP (6 h): 5.5 g/dL | gamma-GTP (6 h): 1.2 IU/L | TERMINAL_BW (9 h): 207.5 g | APTT (9 h): 18.7 s | Bas (9 h): 0% | Eos (9 h): 1% | Fbg (9 h): 227 mg/dL | Hb (9 h): 13.1 g/dL | Ht (9 h): 38.6% | Lym (9 h): 76.6% | MCH (9 h): 21.9 pg | MCHC (9 h): 34.1% | MCV (9 h): 64.3 fL | Mono (9 h): 3% | Neu (9 h): 18.6% | PT (9 h): 13 s | Plat (9 h): 135.1 x10_4/uL | RBC (9 h): 601.2 x10_4/ul | Ret (9 h): 8.2% | WBC (9 h): 75 x10_2/uL | KIDNEY_L (9 h): 0.9 g | KIDNEY_R (9 h): 0.9 g | KIDNEY_TOTAL (9 h): 1.8 g | LIVER (9 h): 8.6 g | A/G (9 h): 1.7 | ALP (9 h): 922.4 IU/L | ALT (9 h): 30.2 IU/L | AST (9 h): 61.2 IU/L | BUN (9 h): 9.8 mg/dL | CRE (9 h): 0.3 mg/dL | Ca (9 h): 10.3 mg/dL | Cl (9 h): 103.8 meq/L | DBIL (9 h): 0.088 mg/dL | GLC (9 h): 207.4 mg/dL | IP (9 h): 9.9 mg/dL | K (9 h): 3.8 meq/L | LDH (9 h): 123.2 IU/L | Na (9 h): 140.6 meq/L | PL (9 h): 153.2 mg/dL | RALB (9 h): 3.4 g/dL | TBIL (9 h): 0.2 mg/dL | TC (9 h): 81.2 mg/dL | TG (9 h): 53.6 mg/dL | TP (9 h): 5.4 g/dL | gamma-GTP (9 h): 1.2 IU/L | TERMINAL_BW (24 h): 216.8 g | APTT (24 h): 18.2 s | Bas (24 h): 0% | Eos (24 h): 1% | Fbg (24 h): 209.6 mg/dL | Hb (24 h): 13.7 g/dL | Ht (24 h): 40.6% | Lym (24 h): 77.6% | MCH (24 h): 21.6 pg | MCHC (24 h): 33.8% | MCV (24 h): 63.7 fL | Mono (24 h): 3.2% | Neu (24 h): 17% | PT (24 h): 12.9 s | Plat (24 h): 132.9 x10_4/uL | RBC (24 h): 637 x10_4/ul | Ret (24 h): 6.7% | WBC (24 h): 93 x10_2/uL | KIDNEY_L (24 h): 0.9 g | KIDNEY_R (24 h): 0.9 g | KIDNEY_TOTAL (24 h): 1.8 g | LIVER (24 h): 10.5 g | A/G (24 h): 1.5 | ALP (24 h): 950.6 IU/L | ALT (24 h): 38.2 IU/L | AST (24 h): 65.8 IU/L | BUN (24 h): 16 mg/dL | CRE (24 h): 0.4 mg/dL | Ca (24 h): 10.5 mg/dL | Cl (24 h): 103.2 meq/L | DBIL (24 h): 0.1 mg/dL | GLC (24 h): 203.4 mg/dL | IP (24 h): 6.8 mg/dL | K (24 h): 3.8 meq/L | LDH (24 h): 145.2 IU/L | Na (24 h): 140.6 meq/L | PL (24 h): 141.2 mg/dL | RALB (24 h): 3.4 g/dL | TBIL (24 h): 0.2 mg/dL | TC (24 h): 80 mg/dL | TG (24 h): 83.4 mg/dL | TP (24 h): 5.7 g/dL | gamma-GTP (24 h): 1 IU/L
